DBAASP
Values after ≈ are worked out from the molar mass of the structure shown. Values joined by “and” are separate entries in the source; they are usually repeats but may differ in a detail not shown here. Equal values may be shown once. One block for each compound: values may come before it.

Columns and labels:
Test in all cases: ≥ marks a high value that may be exact or a test limit, other limits are often not marked, values filed in µg/mL are converted to µM
[1] = tested on: Acinetobacter calcoaceticus
Bacillus cereus = tested on: Bacillus cereus
Bacillus pumilus = tested on: Bacillus pumilus
[2] = tested on: Candida albicans ATCC 2002
[3] = tested on: Escherichia coli ATCC 25922
Pseudomonas aeruginosa = tested on: Pseudomonas aeruginosa
Shigella dysenteriae = tested on: Shigella dysenteriae
[4] = tested on: Staphylococcus aureus ATCC 2592
[5] = tested on: Acinetobacter baumannii ATCC 19606R
[6] = tested on: Acinetobacter baumannii ATCC 19606
[7] = tested on: Batrachochytrium dendrobatidis
[8] = tested on: Enterococcus faecalis ATCC 29212
[9] = tested on: Enterococcus faecalis CDC 21
[10] = tested on: Enterococcus faecium 94-132
Enterococcus faecium = tested on: Enterococcus faecium
Escherichia coli BAS 849 = tested on: Escherichia coli BAS 849
Escherichia coli ML-35p = tested on: Escherichia coli ML-35p
Escherichia coli mcr106 = tested on: Escherichia coli mcr106
[11] = tested on: Klebsiella pneumoniae ATCC 13883
Klebsiella pneumoniae = tested on: Klebsiella pneumoniae
[12] = tested on: Listeria monocytogenes EGD
Mycobacterium avium = tested on: Mycobacterium avium
[13] = tested on: Mycobacterium tuberculosis H37Rv
[14] = tested on: Mycobacterium tuberculosis
[15] = tested on: Pseudomonas aeruginosa ATCC 27853
[16] = tested on: Pseudomonas aeruginosa MR2123
[17] = tested on: Pseudomonas aeruginosa MR3007
[18] = tested on: Pseudomonas aeruginosa SBI-N
[19] = tested on: Salmonella enterica serovar typhimurium MS7953s
[20] = tested on: Salmonella enterica subsp. enterica serovar Typhimurium ATCC 14028s
[21] = tested on: Staphylococcus aureus 28841
[22] = tested on: Staphylococcus aureus 30371
[23] = tested on: Staphylococcus aureus 930918-3
[24] = tested on: Staphylococcus aureus ATCC 25923
[25] = tested on: Staphylococcus aureus ATCC 29213
[26] = tested on: Streptococcus agalactiae ATCC 12386
[27] = tested on: Psychrobacter faecalis X29
[28] = tested on: Rhodococcus rhodochrous X15
[29] = tested on: Bordetella bronchiseptica CUN 11844-99
[30] = tested on: Brucella abortus 9.49 (per-)
[31] = tested on: Escherichia coli ATCC 23716
[32] = tested on: Pseudomonas aeruginosa CUN 4158-02
[33] = tested on: Staphylococcus aureus ATCC 43300
[34] = tested on: Staphylococcus aureus ΔmprFpRBsyn
[35] = tested on: Staphylococcus aureus ΔmprF
Staphylococcus aureus = tested on: Staphylococcus aureus
Yersinia pestis KIM pYV = tested on: Yersinia pestis KIM pYV
[36] = tested on: Cryptococcus neoformans ATCC 208821
Fusarium oxysporum = tested on: Fusarium oxysporum
Fusarium solani = tested on: Fusarium solani
[37] = tested on: Pseudomonas aeruginosa ATCC 9027
[38] = tested on: Staphylococcus aureus USA 100
[39] = tested on: Staphylococcus aureus USA 300

MIC [1]: ≥ 41 µM
MIC (Bacillus cereus): ≥ 51.2 µM
MIC (Bacillus pumilus): 10.2 µM (≈ 15 µg/mL)
MIC [2]: 3.42 µM (≈ 5 µg/mL)
MIC [3]: 10.2 µM (≈ 15 µg/mL)
MIC (Pseudomonas aeruginosa): 5.12 µM (≈ 7.5 µg/mL)
MIC (Shigella dysenteriae): 20.5 µM (≈ 30 µg/mL)
MIC [4]: 5.12 µM (≈ 7.5 µg/mL)
Compound: CC[C@H](C)[C@H](NC(=O)[C@@H]1CCCN1C(=O)[C@H](Cc1ccccc1)NC(=O)[C@@H](N)Cc1ccccc1)C(=O)N[C@H](C(=O)NCC(=O)N[C@@H](CCCCN)C(=O)N[C@@H](CC(C)C)C(=O)N[C@@H](CC(C)C)C(=O)N[C@@H](Cc1ccccc1)C(=O)NCC(=O)N[C@@H](CC(C)C)C(=O)N[C@@H](CC(C)C)C(N)=O)C(C)C [FFPIVGKLLFGLL]

MIC [5]: 26.6 µM (≈ 64 µg/mL)
MIC [6]: 26.6 µM (≈ 64 µg/mL)
MIC [7]: ≥ 47 µM
MIC [8]: > 207 µM
MIC [9]: 3.03 µM (≈ 7.3 µg/mL)
MIC [10]: 1.16 µM (≈ 2.8 µg/mL)
MIC (Enterococcus faecium): 1.66 µM (≈ 4 µg/mL)
MIC [3]: 104 µM (≈ 250 µg/mL)
MIC (Escherichia coli BAS 849): 0.29 µM (≈ 0.7 µg/mL)
MIC (Escherichia coli ML-35p): 0.29 µM (≈ 0.7 µg/mL)
MIC (Escherichia coli mcr106): 0.373 µM (≈ 0.9 µg/mL)
MIC [11]: ≥ 104 µM
MIC (Klebsiella pneumoniae): 0.747 µM (≈ 1.8 µg/mL)
MIC [12]: 1.91 µM (≈ 4.6 µg/mL)
MIC (Mycobacterium avium): ≥ 53.1 µM
MIC [13]: ≥ 498 µM
MIC [14]: ≥ 53.1 µM
MIC [15]: > 207 µM
MIC [16]: 0.166 µM (≈ 0.4 µg/mL)
MIC [17]: 0.207 µM (≈ 0.5 µg/mL)
MIC [18]: 0.166 µM (≈ 0.4 µg/mL)
MIC [19]: 0.249 µM (≈ 0.6 µg/mL)
MIC [20]: 0.498 µM (≈ 1.2 µg/mL)
MIC [21]: ≥ 39.3 µM
MIC [22]: ≥ 83 µM
MIC [23]: 9.13 µM (≈ 22 µg/mL)
MIC [24]: > 207 µM
MIC [25]: > 207 µM
MIC [26]: 31.1 µM (≈ 75 µg/mL)
Compound: CC[C@H](C)[C@H](NC(=O)CN)C(=O)NCC(=O)N[C@@H](CCCCN)C(=O)N[C@@H](Cc1ccccc1)C(=O)N[C@@H](CC(C)C)C(=O)N[C@@H](Cc1c[nH]cn1)C(=O)N[C@@H](CO)C(=O)N[C@@H](C)C(=O)NCC(=O)N[C@@H](CCCCN)C(=O)N[C@@H](Cc1ccccc1)C(=O)NCC(=O)N[C@@H](CCCCN)C(=O)N[C@@H](C)C(=O)N[C@@H](Cc1ccccc1)C(=O)N[C@H](C(=O)NCC(=O)N[C@@H](CCC(=O)O)C(=O)N[C@H](C(=O)N[C@@H](CCSC)C(=O)N[C@@H](CCCCN)C(=O)N[C@@H](CO)C(=O)O)[C@@H](C)CC)C(C)C [GIGKFLHSAGKFGKAFVGEIMKS]

MIC [27]: 15 µM (≈ 49.3 µg/mL)
MIC [28]: 30 µM (≈ 98.7 µg/mL)
MIC [4]: ≥ 60 µM
Compound: CC[C@H](C)[C@H](NC(=O)[C@H](C)NC(=O)[C@@H](NC(=O)[C@H](CC(=O)O)NC(=O)[C@H](CCCCN)NC(=O)[C@H](Cc1ccccc1)NC(=O)[C@@H](NC(=O)[C@H](CC(=O)O)NC(=O)[C@H](CC(C)C)NC(=O)[C@@H](NC(=O)CN)C(C)C)[C@@H](C)O)C(C)C)C(=O)NCC(=O)N[C@H](C(=O)N[C@@H](C)C(=O)N[C@@H](CCCCN)C(=O)NCC(=O)N[C@@H](C)C(=O)NCC(=O)N[C@H](C(=O)NCC(=O)N[C@H](C(=O)N[C@@H](CC(C)C)C(=O)N[C@@H](CCCCN)C(=O)N[C@@H](C)C(=O)N[C@@H](CC(C)C)C(=O)N[C@@H](CC(C)C)C(=O)N[C@H]1CSSC[C@@H](C(=O)O)NC(=O)[C@H](CO)NC(=O)[C@H](CCCCN)NC(=O)[C@H](CC(=O)O)NC(=O)[C@H](CC(C)C)NC(=O)[C@H](CCCCN)NC1=O)C(C)C)[C@@H](C)O)C(C)C [GVLDTFKDVAIGVAKGAGTGVLKALLCKLDKSC]

Compound: CC[C@H](C)[C@H](NC(=O)[C@H](CCCCN)NC(=O)[C@H](CCCCN)NC(=O)[C@H](CO)NC(=O)[C@@H](NC(=O)CNC(=O)[C@H](CCCN=C(N)N)NC(=O)[C@H](CC(C)C)NC(=O)[C@@H](NC(=O)[C@@H](N)CCCCN)[C@@H](C)CC)C(C)C)C(=O)N[C@@H](CCSC)C(=O)N[C@@H](CCCN=C(N)N)C(=O)N[C@H](C(=O)N[C@@H](Cc1ccccc1)C(=O)N[C@@H](CC(C)C)C(=O)N[C@@H](CCCN=C(N)N)C(=O)N[C@@H](CCCN=C(N)N)C(=O)N[C@H](C(=O)N[C@@H](CC(C)C)C(=O)N[C@H](C(=O)NCC(=O)N[C@@H](CCCCN)C(=O)N[C@@H](CCCCN)C(N)=O)[C@@H](C)O)[C@@H](C)CC)[C@@H](C)O [KILRGVSKKIMRTFLRRILTGKK]
MIC [6]: 1.46 µM (≈ 4 µg/mL)
MIC [29]: 0.729 µM (≈ 2 µg/mL)
MIC [30]: 1.46 µM (≈ 4 µg/mL)
MIC [31]: 2.92 µM and 6.93 µM
MIC [3]: 1.46 µM (≈ 4 µg/mL)
MIC [32]: 1.46 µM (≈ 4 µg/mL)
MIC [33]: 23.3 µM (≈ 64 µg/mL)
MIC [34]: 1.46 µM (≈ 4 µg/mL)
MIC [35]: 1.46 µM (≈ 4 µg/mL)
MIC (Staphylococcus aureus): 5.83 µM (≈ 16 µg/mL)
MIC (Yersinia pestis KIM pYV): 5.83 µM (≈ 16 µg/mL)

MIC [36]: 23.1 µM (≈ 32 µg/mL)
MIC (Fusarium oxysporum): 16 µM (≈ 22.2 µg/mL)
MIC (Fusarium solani): 8 µM (≈ 11.1 µg/mL)
MIC [37]: 50 µM (≈ 69.3 µg/mL)
MIC [38]: 6.25 µM (≈ 8.67 µg/mL)
MIC [39]: 12.5 µM (≈ 17.3 µg/mL)
Compound: NC(=O)[C@H](Cc1c[nH]c2ccccc12)NC(=O)[C@H](CCCN=C(N)N)NC(=O)[C@H](Cc1c[nH]c2ccccc12)NC(=O)[C@H](CCCN=C(N)N)NC(=O)[C@H](Cc1c[nH]c2ccccc12)NC(=O)[C@H](CCCN=C(N)N)NC(=O)[C@H](Cc1c[nH]c2ccccc12)NC(=O)[C@@H](N)CCCN=C(N)N [RWRWRWRW]
